Test results reported in ChEMBL document CHEMBL3045572, “Mitochondrial impacts of insecticidal formate esters in insecticide-resistant and insecticide-susceptible Drosophila melanogaster” (Pest Manag Sci, 2009).
Activity calls are given as the source filed them. No cut-off for these calls is given here.

Assays:
[1] = Inhibition of cytochrome c oxidase in insecticide-resistance Drosophila melanogaster Hikone-R mitochondria using reduced cytochrome c as substrate by microplate spectrophotometer analysis
[2] = test system: Drosophila melanogaster; test: Disruption of mitochondria in insecticide-susceptible Drosophila melanogaster Hikone-R assessed as increase in cytochrome c release from mitochondria to cytosol at 1 mM by western blot analysis; assay type: functional, organism-based
[3] = test system: Drosophila melanogaster; test: Disruption of mitochondria in insecticide-susceptible Drosophila melanogaster Canton-S assessed as increase in cytochrome c release from mitochondria to cytosol at 1 mM by western blot analysis; assay type: functional, organism-based
[4] = Inhibition of cytochrome c oxidase in insecticide-susceptible Drosophila melanogaster Canton-S mitochondria using reduced cytochrome c as substrate by microplate spectrophotometer analysis
[5] = test system: Drosophila melanogaster; conditions: Hikone-R, Mitochondria, 10 mM
Description: Inhibition of cytochrome c oxidase in insecticide-resistance Drosophila melanogaster Hikone-R mitochondria at 10 mM using reduced cytochrome c as substrate by microplate spectrophotometer analysis

[6] = test system: Drosophila melanogaster; conditions: Canton-S, Mitochondria, 10 mM
Description: Inhibition of cytochrome c oxidase in insecticide-susceptible Drosophila melanogaster Canton-S mitochondria at 10 mM using reduced cytochrome c as substrate by microplate spectrophotometer analysis

[7] = test system: Drosophila melanogaster; test: Inhibition of cytochrome c oxidase in insecticide-resistance Drosophila melanogaster Hikone-R mitochondria at 100 mM using reduced cytochrome c as substrate by microplate spectrophotometer analysis
[8] = test system: Drosophila melanogaster; test: Inhibition of cytochrome c oxidase in insecticide-susceptible Drosophila melanogaster Canton-S mitochondria at 100 mM using reduced cytochrome c as substrate by microplate spectrophotometer analysis

Row | SMILES | IC50 [1] [mM] | Activity [2] | Activity [3] | IC50 [4] [mM] | inhibition [5] [%] | inhibition [6] [%] | inhibition [7] [%] | inhibition [8] [%]
1 | O=C[O-].[Na+] [SODIUM FORMATE] | > 100 | Active | Active | > 100 | 3 | 3 |  | 
2 | COC=O |  | Active | Active |  |  |  | < 8 | < 8
3 | CCOC=O |  | Active | Active |  |  |  | < 8 | < 8
4 | [N-]=[N+]=[N-] [SODIUM AZIDE] | > 16 |  |  | > 16 |  |  |  | 
5 | CC(C)(C)OC=O |  | Active | Active |  |  |  | < 8 | < 8
6 | CC(=O)[O-].[Na+] [SODIUM ACETATE] | > 100 |  |  | > 100 |  |  |  | 
7 | CCCOC=O |  | Active | Active |  |  |  | < 8 | < 8
8 | CCCCOC=O |  | Active | Active |  |  |  | < 8 | < 8
9 | CCCCCCCOC=O |  | Active | Active |  |  |  | < 8 | < 8
10 | CCCCCC[C@H]1C(=O)O[C@H](C)[C@H](NC(=O)c2cccc(NC=O)c2O)C(=O)O[C@@H](C)[C@@H]1OC(=O)CC(C)C |  | Active | Active |  |  |  |  | 
11 | CCC(=O)[O-].[Na+] [SODIUM PROPIONATE] | > 100 |  |  | > 100 |  |  |  | 
12 | O=COCCOC=O |  | Active | Active |  |  |  | < 8 | < 8
13 | CCCCCCOC=O |  | Active | Active |  |  |  | < 8 | < 8
14 | CC1(C)CNC(=NN=C(/C=C/c2ccc(C(F)(F)F)cc2)/C=C/c2ccc(C(F)(F)F)cc2)NC1 [HYDRAMETHYLNON] | 0.48 |  |  | 0.47 |  |  |  | 
15 | C=C(C)[C@H]1Cc2c(ccc3c2O[C@@H]2COc4cc(OC)c(OC)cc4[C@@H]2C3=O)O1 |  | Active | Active |  |  |  |  | 
